Among the data in PubChem BioAssay AID180 (DTP/NCI, 2004) are T/C values, retold here.

Several values for one entry are separate records, joined by “and”; a condition that tells them apart may be missing. Identical values can stand only once.

In this assay the test system is BDF1 mice, Adenocarcinoma 755 s.c., tumor weight T/C. Description: NCI In Vivo Anticancer Drug Screen. Data for tumor model Adenocarcinoma 755 (subcutaneous) in B6D2F1 (BDF1) mice. The note with it: endpoint: mean tumor weight, higher = larger tumour. Put shortly: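 Transplantable tumor implanted; mice dosed with compound or vehicle; survival or tumor size recorded; ratio of treated to vehicle control reported.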

Setting [1] is: dose: 25.0 mg/kg/injection, schedule: Q01DX011 (ip), vehicle: methylcellulose (MC).
The mark [2] stands for this setting: dose: 75.0 mg/kg/injection, schedule: Q01DX011 (ip), vehicle: methylcellulose (MC).

What is called T/C is the result in the treated group divided by that in the control group, in per cent. On to `COB1OB(OC)OB(OC)O1`, for which the T/C is 78 % of control (dose: 18.75 mg/kg/injection, schedule: Q01DX011 (ip), vehicle: water); 64 % of control (dose: 250.0 mg/kg/injection, schedule: Q#A X022 (oral), vehicle: water); 51 % of control (dose: 335.0 mg/kg/injection, schedule: Q01DX011 (ip), vehicle: other); 59 % of control (dose: 375.0 mg/kg/injection, schedule: Q01DX011 (im), vehicle: other); 75 % of control (dose: 375.0 mg/kg/injection, schedule: Q01DX011 (ip), vehicle: other); 61 % of control (dose: 375.0 mg/kg/injection, schedule: Q01DX011 (ip), vehicle: water). In addition, the T/C runs as follows: (dose: 375.0 mg/kg/injection, schedule: Q01DX011 (sc), vehicle: other) 81 % of control; (dose: 450.0 mg/kg/injection, schedule: Q#A X022 (sc), vehicle: other) 40 % of control; (dose: 500.0 mg/kg/injection, schedule: Q01DX011 (ip), vehicle: other) 41 % of control and 51 % of control; (dose: 500.0 mg/kg/injection, schedule: Q01DX011 (oral), vehicle: other) 97 % of control and 75 % of control; (dose: 500.0 mg/kg/injection, schedule: Q#A X022 (oral), vehicle: water) 43 % of control; (dose: 600.0 mg/kg/injection, schedule: Q01DX011 (oral), vehicle: other) 53 % of control. For the same molecule, the T/C is, setting by setting: (dose: 600.0 mg/kg/injection, schedule: Q## X012 (oral), vehicle: other) 109 % of control; (dose: 600.0 mg/kg/injection, schedule: Q#A X022 (im), vehicle: other) 28 % of control; (dose: 600.0 mg/kg/injection, schedule: Q#A X022 (sc), vehicle: other) 74 % of control; (dose: 750.0 mg/kg/injection, schedule: Q01DX011 (im), vehicle: other) 65 % of control and 74 % of control; (dose: 750.0 mg/kg/injection, schedule: Q01DX011 (ip), vehicle: other) 43 % of control and 47 % of control and 55 % of control; (dose: 750.0 mg/kg/injection, schedule: Q01DX011 (ip), vehicle: water) 20 % of control. Moreover, the T/C was 71 % of control (dose: 750.0 mg/kg/injection, schedule: Q01DX011 (oral), vehicle: other); 71 % of control (dose: 750.0 mg/kg/injection, schedule: Q02DX006 (ip), vehicle: other); 78 % of control (dose: 750.0 mg/kg/injection, schedule: Q## X006 (ip), vehicle: other); 7 % of control and 21 % of control (dose: 750.0 mg/kg/injection, schedule: Q#A X022 (oral), vehicle: water); 43 % of control (dose: 750.0 mg/kg/injection, schedule: Q#A X022 (sc), vehicle: other); 77 % of control (dose: 800.0 mg/kg/injection, schedule: Q01DX011 (im), vehicle: other). For the same molecule, the T/C (dose: 800.0 mg/kg/injection, schedule: Q#A X022 (im), vehicle: other) was 50 % of control; the T/C (dose: 1000.0 mg/kg/injection, schedule: Q01DX011 (im), vehicle: other) is 48 % of control and 56 % of control; the T/C (dose: 1000.0 mg/kg/injection, schedule: Q01DX011 (ip), vehicle: other) was 14 % of control and 37 % of control; the T/C (dose: 1000.0 mg/kg/injection, schedule: Q01DX011 (oral), vehicle: saline) was 47 % of control; the T/C (dose: 1000.0 mg/kg/injection, schedule: Q01DX011 (oral), vehicle: water) is 37 % of control; the T/C (dose: 1000.0 mg/kg/injection, schedule: Q02DX006 (ip), vehicle: other) is 45 % of control. The T/C reads like this: (dose: 1000.0 mg/kg/injection, schedule: Q## X006 (ip), vehicle: other) 63 % of control; (dose: 1000.0 mg/kg/injection, schedule: Q## X012 (oral), vehicle: other) 84 % of control; (dose: 1000.0 mg/kg/injection, schedule: Q#A X022 (oral), vehicle: water) 8 % of control; (dose: 1000.09 mg/kg/injection, schedule: Q01DX011 (oral), vehicle: other) 36 % of control; (dose: 1125.0 mg/kg/injection, schedule: Q01DX011 (ip), vehicle: other) 43 % of control; (dose: 1200.0 mg/kg/injection, schedule: Q01DX011 (im), vehicle: other) 22 % of control. Moreover, the T/C is 38 % of control (dose: 1250.0 mg/kg/injection, schedule: Q01DX011 (sc), vehicle: other); 2 % of control and 10 % of control (dose: 1250.0 mg/kg/injection, schedule: Q#A X022 (oral), vehicle: water); 16 % of control and 30 % of control (dose: 1500.0 mg/kg/injection, schedule: Q01DX011 (im), vehicle: other); 6 % of control (dose: 1500.0 mg/kg/injection, schedule: Q01DX011 (ip), vehicle: water); 16 % of control (dose: 1500.0 mg/kg/injection, schedule: Q01DX011 (oral), vehicle: saline); 16 % of control (dose: 1500.0 mg/kg/injection, schedule: Q01DX011 (oral), vehicle: water). For the same molecule, the T/C was 22 % of control (dose: 1500.0 mg/kg/injection, schedule: Q01DX011 (sc), vehicle: other); 37 % of control (dose: 1500.0 mg/kg/injection, schedule: Q02DX006 (ip), vehicle: other); 58 % of control (dose: 1500.0 mg/kg/injection, schedule: Q## X006 (ip), vehicle: other); 51 % of control (dose: 1500.0 mg/kg/injection, schedule: Q## X012 (oral), vehicle: other); 14 % of control (dose: 2000.0 mg/kg/injection, schedule: Q01DX011 (oral), vehicle: saline); 7 % of control (dose: 2000.0 mg/kg/injection, schedule: Q01DX011 (oral), vehicle: water). In addition, the T/C by setting is: (dose: 2000.0 mg/kg/injection, schedule: Q## X012 (oral), vehicle: other) 15 % of control; (dose: 2500.0 mg/kg/injection, schedule: Q01DX011 (oral), vehicle: saline) 4 % of control; (dose: 2500.0 mg/kg/injection, schedule: Q## X012 (oral), vehicle: other) 22 % of control.
Consider `CC1(C)N=C(N)N=C(N)N1c1cccc(Cl)c1`, for which the T/C is, setting by setting: (dose: 1.15 mg/kg/injection, schedule: Q01DX011 (ip), vehicle: carboxymethylcellulose (CMC)) 89 % of control; (dose: 2.3 mg/kg/injection, schedule: Q01DX011 (ip), vehicle: carboxymethylcellulose (CMC)) 72 % of control; (dose: 4.6 mg/kg/injection, schedule: Q01DX011 (ip), vehicle: carboxymethylcellulose (CMC)) 121 % of control; (dose: 9.2 mg/kg/injection, schedule: Q01DX011 (ip), vehicle: carboxymethylcellulose (CMC)) 88 % of control.
On to `O=C([O][Hg][CH2]C1CC(O)CC([CH2][Hg][O]C(=O)c2ccccc2)O1)c1ccccc1` (centres undefined), for which the T/C reads like this: (dose: 25.0 mg/kg/injection, schedule: Q01DX011 (ip), vehicle: carboxymethylcellulose (CMC)) 83 % of control; (dose: 50.0 mg/kg/injection, schedule: Q01DX011 (ip), vehicle: carboxymethylcellulose (CMC)) 33 % of control.
With `CSc1ncc(C)c(=O)[nH]1`, the T/C is 113 % of control (dose: 15.0 mg/kg/injection, schedule: Q01DX011 (ip), vehicle: methylcellulose (MC)); 124 % of control (dose: 31.0 mg/kg/injection, schedule: Q01DX011 (ip), vehicle: methylcellulose (MC)); 99 % of control (dose: 62.0 mg/kg/injection, schedule: Q01DX011 (ip), vehicle: methylcellulose (MC)).
As to `CNc1ncnc2c1ncn2C1CCCO1` (centres undefined), the T/C is 119 % of control (dose: 50.0 mg/kg/injection, schedule: Q01DX011 (ip), vehicle: saline); 86 % of control (dose: 100.0 mg/kg/injection, schedule: Q01DX011 (ip), vehicle: saline); 51 % of control (dose: 200.0 mg/kg/injection, schedule: Q01DX011 (ip), vehicle: saline).
For `Cn1c(=O)c2[nH]c(/N=N/N3CCCCC3)nc2n(C)c1=O`, the T/C under setting [1] was 61 % of control; the T/C under setting [2] is 69 % of control and 70 % of control.
For the molecule `Nc1[nH]c(=O)[nH]c(=O)c1C(=O)CCl`, the T/C (dose: 30.0 mg/kg/injection, schedule: Q01DX011 (ip), vehicle: carboxymethylcellulose (CMC)) was 77 % of control.
Take `Cc1ccc2ccccc2c1CSc1nc(N)nc2c1ncn2CC(C)C`: the T/C reads like this: under setting [1], 115 % of control; under setting [2], 80 % of control; (dose: 225.0 mg/kg/injection, schedule: Q01DX011 (ip), vehicle: methylcellulose (MC)) 97 % of control.
